From patent US8470534B2, “Methods of predicting resistance or sensitivity to therapies for cancer” (priority 2006, dated 2013) come the findings set out here.

Assay [1] has as its system MCF7 donor or siRb xenograft tumors. The experiment in a line: Nude mouse xenograft therapeutic study. It counts as in vivo, nude mice. To be noted: for tumor response (size at 4-day intervals): E2 pellet removed. How it is done: The xenograft model system is then utilized to test the response of RB-deficient tumors to CDDP therapy. Tumors are developed in the flanks of mice by injecting MCF7 donor or siRb cells into the flanks of mice and implanting a […] (E2) pellet into the back. When tumors reached 100-110 mm^3, mice received 5 mg/kg CDDP every 4 days for 5 courses.
To assess the role of RB in the therapeutic response of MCF7 cells in vivo, the xenograft model is again employed. Upon the attainment of tumors of approximately 100-120 mm^3, mice are deprived of estrogen and treated with Tam. […] (FIG. 4F). […] All tumors are weighed upon exclusion, and RB-deficient tumors are more than 3 times heavier than control tumors following Tam therapy (FIG. 4G).
Five- to 8-week-old female ovariectomized athymic nude mice are anesthetized, and an E2 pellet (1.7 mg/pellet, 90-day release) or placebo is surgically implanted in the back. Following implantation, 200 μl of a PBS- and phenol red-free Matrigel matrix basement membrane, solution (3:1) containing 2×10^6 cells is injected subcutaneously into the flank, or contralaterally where noted. Tumor volume is measured with calipers every 4 days using the equation V=0.52 (width)^2 ×(length). In the therapeutic studies, when tumor volume reaches 100-120 mm^3, animals are placed into 1 of 3 therapeutic groups (each group containing at least 6 animals): control animals retaining the estrogen pellet, antiestrogen-treated animals, or CDDP-treated animals. Animals in the antiestrogen treatment group are anesthetized, the estrogen pellet is surgically removed, and a Tam pellet (5 mg/pellet, 60-day release) implanted. The CDDP-treated animals receive 5 mg/kg CDDP injected i.p. on a q4dx5 schedule (every 4 days for 5 courses). All animals are injected i.p. with 150 mg/kg BrdU (Sigma-Aldrich) 1 hour prior to euthanization. Xenograft tumors are weighed and fixed in 10% neutral buffered formalin, paraffin embedded, and cut into 5-ÿm sections. For immunohistochemical staining, sections are deparaffinized in xylene and rehydrated through a graded series of ethanol/water solutions. A BrdU detection kit is utilized as recommended by the manufacturer. BrdU incorporation is scored in a blinded manner, and at least 500 cells per section are counted from several random fields.

The test system of assay [2] is MCF7, T47D, and Zr-75-1 cells. As to the kind of experiment: BrdU incorporation under hormone deprivation / antiestrogen (CDT, CDT/Tam, CDT/ICI). In kind it is cell-based, human. How it is done:
To understand the impact of RB deficiency on the response to hormone deprivation therapy, cells are cultured in CDT, CDT/Tam, or in the presence of pure antiestrogen, ICI182780 (CDT/ICI). Following treatment with these modalities, cells are labeled with BrdU to determine the influence of each agent on cell-cycle progression and the corresponding influence of RB knockdown on this response (FIG. 4B). These experiments are recapitulated in the polyclonal populations of T47D and Zr-75-1 donor and siRb88 cells (FIG. 4C). […] To elucidate the long-term growth effects of these therapies, cell proliferation assays are performed over 9 days. RB-proficient and -deficient MCF7 cells are seeded at equal densities and cultured in CDT/Tam (FIG. 4D). […] Similar results are evident in the same experiments with both T47D and Zr-75-1 RB-proficient and -deficient polyclonal pools (FIG. 4E).
RB target gene upregulation is a prognostic indicator in human breast cancers. RB performs a myriad of functions, the most well understood being repression of the E2F family of transcription factors. To determine the specific influence of the E2F axis on bypassing therapy, an activator E2F is overexpressed in wild-type MCF7 cells. Specifically, cells are infected either with an adenovirus encoding E2F3 (ad-E2F3) or a control virus (Ad-LacZ) and are harvested 3 days after infection for immunoblot analysis of levels of known RB-E2F targets (FIG. 5A). […] As expected, no changes are detected in RB levels, and CDK4 serves as a loading control. In order to assess the response to therapeutic intervention, 3 days after infection Ad-E2F3- or AdLacZ-infected MCF7 cells are separated into 2 major treatment groups: hormone therapy and DNA damage therapy. The estrogen ablation group is then cultured in the absence of estrogen and in the presence of Tam and ICI as described above. Alternatively, the cells in the DNA damage therapy group are treated with 16 μM CDDP for 18 hours prior to washing or treatment with 5 Gy IR. Cells from both therapy groups are BrdU labeled, and the replicative fraction of treated cells is determined with respect to untreated control cells (FIG. 5B).
To study the effect of estrogen depletion, cells are cultured for 72 hours in phenol red-free DMEM supplemented with 10% CDT serum with addition of 10^−9 M 4-HydroxyTam or 10^−6 M ICI where indicated. Cell growth assays are performed by trypsinizing cells and counting by trypan blue exclusion every 3 days.
Cells treated with IR are exposed to ^137Cs (dose rate: 0.67 Gy/min) at room temperature in tissue culture media. Culture with clinical grade CDDP for 18 hours is performed for all CDDP treatments. For all proliferation studies, cells are labeled with BrdU for 10 hours or 5 hours for LXSN/LXSN-p53dd infected cells, and BrdU immunofluorescence is performed as previously described. All BrdU results are expressed as a percentage of untreated control cells set to 100%, unless otherwise noted.

As for `CC/C(=C(\c1ccccc1)c1ccc(OCCN(C)C)cc1)c1ccccc1` [Tam, tamoxifen], the “tumor response (size at 4-day intervals)” value is recorded as “did not regress” in assay [1] (RB-deficient MCF7 tumors, Tam pellet) and “regressing to nearly immeasurable sizes” in assay [1] (RB-proficient MCF7 tumors, Tam pellet 5 mg/pellet). The “tumor size reached in the presence of Tam” value in assay [1] (RB-deficient MCF7 tumors, therapy started at approximately 100-120 mm^3) is listed as ~150 mm^3. In addition, in assay [1] (following Tam therapy), the “tumor weight, RB-deficient tumors relative to control tumors” value is recorded as “more than 3 times”. The “cell-cycle arrest (replicative fraction, BrdU)” value in assay [2] (Ad-E2F3-infected versus control infected MCF7 cells, absence of estrogen plus agent) is listed as “significantly reduced levels of cell-cycle arrest”. Also, the “cell-cycle inhibition by the agent (BrdU labeling)” value in assay [2] (RB-depleted cells (MCF7 siRb28, T47D and Zr-75-1 siRb88), CDT serum plus agent, 3 days) was “significantly reduced”. For the same compound, in assay [2] (cells harboring functional RB (MCF7, T47D, Zr-75-1 donor), CDT serum plus agent, 3 days, 10^−9 M 4-HydroxyTam or 10^−6 M ICI), the “cell-cycle progression (BrdU labeling)” value is given as “elicit cell-cycle inhibition”.
